Experimental data published in patent publication US7202239B2, “Cyclohexylphenyl carboxamides tocolytic oxytocin receptor antagonists” (Wyeth, priority 2001, dated 2007).

The compounds below were run against T1, human oxytocin receptor (Homo sapiens, UniProt P30559) (assay: Oxytocin binding in CHO cell membranes expressing human oxytocin receptors). Details: 100 nM, [3H]oxytocin.
T1 sequence (P30559 1-389): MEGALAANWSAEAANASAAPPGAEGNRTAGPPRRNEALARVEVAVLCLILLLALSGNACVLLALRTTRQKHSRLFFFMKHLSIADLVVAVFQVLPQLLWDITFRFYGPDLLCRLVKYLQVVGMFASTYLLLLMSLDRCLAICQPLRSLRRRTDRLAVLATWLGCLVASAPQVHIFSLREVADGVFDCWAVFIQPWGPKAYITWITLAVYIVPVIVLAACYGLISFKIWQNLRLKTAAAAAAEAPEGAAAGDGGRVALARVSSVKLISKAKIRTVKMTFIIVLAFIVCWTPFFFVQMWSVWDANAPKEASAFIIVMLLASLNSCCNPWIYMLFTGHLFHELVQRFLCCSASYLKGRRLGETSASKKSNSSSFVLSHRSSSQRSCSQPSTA
Description: Oxytocin Binding in Chinese Hamster Ovary Cell Membranes Expressing Human Oxytocin Receptors
Chinese Hamster Ovary (CHO) cells stably transfected with the human oxytocin receptor (cf. Tanizawa et al., U.S. Pat. No. 5,466,584 (1995) to Rohto Pharmaceutical Co. Ltd., Osaka, Japan) were obtained from M. Thibonnier, Case Western Reserve University School of Medicine, Cleveland, Ohio. A. Passaging and Amplification of Cells: CHO cells transfected with the human oxytocin receptors obtained from M. Thibonnier (pcDNA3.1 vector) are allowed to grow to confluency (approx. >90%) in T-150 flasks under sterile conditions, in a cell culture medium of F-12 Nutrient Mixture (HAM) with L-glutamine (Gibco Cat. # 11765-054) containing 15 mM HEPES (Gibco Cat. # 15630-080), 1% antibiotic/antimycotic (add 5 mL 100×, Gibco Cat. # 15240-062 per 500 mL F-12), 400 μg/mL of Geneticin (add 4 mL of 50 mg/mL per 500 mL F-12) and 10% Fetal Bovine Serum (Qualified, heat inactivated, Gibco Cat. # 16140-063). The medium is removed by aspiration and the cells are washed with 10 mL of Hank's Balanced Salt solution (Gibco Cat. # 14175-095). The salt solution is removed by aspiration and the cells trypsinized with 5 mL of trypsin-EDTA (0.05% trypsin, 0.53 mM EDTA-4Na, Gibco Cat. # 25300-070) for 1 min The trypsin is removed by aspiration and the cells dislodged by tapping. Cell Culture medium (e.g. 30 mL for 1:30 split) is immediately added and mixed well to inactivate trypsin. 1 mL of detached cells is added to new culture flasks containing fresh Cell Culture medium (e.g. into 25 mL per T-150 flask), and mixed gently. The cells are incubated at 37° C. in 5% CO2. The medium is changed at 3 to 4 days interval (or as appropriate). The cells grow to confluency (approx. >75%–95%) within 7–8 days. All steps are done under sterile conditions. B. Membrane Preparation: The cells are washed twice gently with Hank's Balanced Salt solution (eg, use 10 mL per T-150 flask). The excess solution is removed and the cells bathed for 15–30 min. in an enzyme-free Cell Dissociation Buffer (eg, use 8 mL Hank's Based, Gibco Cat. # 13150-016 per T-150 flask) until cells are loosened. The contents are transferred to centrifuge tubes (50 mL size) kept in ice bath. All subsequent steps are done at 4° C. The tubes are centrifuged at 300×g for 15 min (1380 rpm on SORVAL, Model RT6000D, using rotor for 50 mL tubes). The supernatant is discarded and the cells suspended in homogenizing buffer (10 mM Tris-HCl containing 0.25 M sucrose and 1 mM EDTA, pH 7.4) ensuring that the volume of the buffer is about ten times the volume of the cell pellet. The cells are pooled into a centrifuge tube (50 mL) and homogenized with a Polytron at setting 6 for 10 sec. The homogenate is transferred into a Potter-Elvjehm homogenizer and homogenized with 3 strokes. The homogenate is centrifuged at 1500×g for 10 min at 4° C. (3100 rpm using SORVAL, model RT6000D, using rotor for 50 mL tubes). The pellet is discarded. The supernatant is centrifuged at 100,000×g for 60 min. at 4° C. (Beckman L8-80M ultracentrifuge; spin at 37,500 rpm with rotor type 70 Ti for 50 mL tubes; 38,000 rpm with type 80Ti for 15 mL tubes; or 35,800 rpm with rotor type 45Ti). The supernantant is discarded and the pellet suspended in 3 to 4 mL of Tris buffer (50 mM TRIS-HCl, pH 7.4). The protein content is estimated by the Bradford or Lowry method. The volume of the membrane suspension is adjusted with the membrane buffer (50 mM Tris-HCl containing 0.1% BSA and 0.1 mM PMSF) to give 3.0 mg/mL (or as appropriate) of protein. The membranes are aliquoted and stored at −70° C. C. Radioligand Binding Assay: In wells of a 96-well format microtiter plate, is added 90, 110 or 130 μL (to make up a final volume of 200 μL) of assay buffer containing 50 mM of Tris-HCl (pH 7.4), […], 1 mg % aprotinin, 1 mg % leupeptin, 2 mg % 1,10-phenanthroline, 10 mg % trypsin inhibitor, and 0.1 mM PMSF. […]
With O=C(C(=O)N1CCC(N2CCCCC2)CC1)c1ccc2n1Cc1ccccc1N(C(=O)c1ccc(C3CCCCC3)cc1)C2 [Example 31, 1-[1.4′]Bipiperidinyl-1′-yl-2-[10-(4-cyclohexyl-benzoyl)-10,11-dihydro-5H-pyrrolo[2,1-c][1,4]benzodiazepin-3-yl]-ethane-1,2-dione] the “OT % inhibition at 100 nM” value was 89%. CN1CCN(C(=O)C(=O)c2ccc3n2Cc2ccccc2N(C(=O)c2ccc(C4CCCCC4)cc2)C3)CC1 [Example 32, 1-[10-(4-Cyclohexyl-benzoyl)-10,11-dihydro-5H-pyrrolo[2,1-c][1,4]benzodiazepin-3-yl]-2-(4-methyl-1-piperazin-1-yl)-1,2-ethane-1,2-dione] was tested, and the “OT % inhibition at 100 nM” value was 87%.

Same assay, conditions: 100 nM, [3H]oxytocin, read-out: OT % inhibition at 100 nM
Work on Cc1ccccc1N1CCN(C(=O)c2ccc3n2Cc2ccccc2N(C(=O)c2ccc(C4CCCCC4)cc2)C3)CC1 [Example 27, [10-(4-Cyclohexyl-benzoyl)-10,11-dihydro-5H-pyrrolo[2,1-c][1,4]benzodiazepin-3-yl][4-(2-methylphenyl)-1-piperazinyl]-methanone] yielded an inhibition at 0.1 µM of 44%. COc1ccc(NC(=O)c2ccc3n2Cc2ccccc2N(C(=O)c2ccc(C4CCCCC4)cc2)C3)cc1 [Example 29, 10-(4-Cyclohexyl-benzoyl)-10,11-dihydro-5H-pyrrolo[2,1-c][1,4]benzodiazepine-3-carboxylic acid (4-methoxy-phenyl)-amide] gave an inhibition at 0.1 µM of 42%. Work on CN1CCCN(C(=O)c2ccc3n2Cc2ccccc2N(C(=O)c2ccc(C4CCCCC4)cc2)C3)CC1 [Example 30, [10-(4-Cyclohexyl-benzoyl)-10,11-dihydro-5H-pyrrolo[2,1-c][1,4]benzodiazepin-3-yl](4-methyl-[1,4]-diazepan-1-yl)-methanone] yielded an inhibition at 0.1 µM of 94%. CN(C)CCCNC(=O)c1ccc2n1Cc1ccccc1N(C(=O)c1ccc(C3CCCCC3)cc1)C2 [Example 33, 10-(4-Cyclohexyl-benzoyl)-N-[3-(dimethylamino)propyl]-10,11-dihydro-5H-pyrrolo[2,1-c][1,4]benzodiazepine-3-carboxamide] was tested, and the inhibition at 0.1 µM was 66%. CN(C)CCN(C)C(=O)c1ccc2n1Cc1ccccc1N(C(=O)c1ccc(C3CCCCC3)cc1)C2 [Example 34, 10-(4-Cyclohexyl-benzoyl)-N-[2-(dimethylamino)-ethyl]-N-methyl-10,11-dihydro-5H-pyrrolo[2,1-c][1,4]benzodiazepine-3-carboxamide] was tested, and the inhibition at 0.1 µM was -5%. CN(C)CCCN(C)C(=O)c1ccc2n1Cc1ccccc1N(C(=O)c1ccc(C3CCCCC3)cc1)C2 [Example 35, 10-(4-Cyclohexyl-benzoyl)-N-[3-(dimethylamino)propyl]N-methyl-10,11-dihydro-5H-pyrrolo[2,1-c][1,4]benzodiazepine-3-carboxamide] gave an inhibition at 0.1 µM of 55%. For O=C(NCCCn1ccnc1)c1ccc2n1Cc1ccccc1N(C(=O)c1ccc(C3CCCCC3)cc1)C2 [Example 36, 10-(4-Cyclohexyl-benzoyl)-N-[3-(1H-imidazol-1-yl)propyl]-10,11-dihydro-5H-pyrrolo[2,1-c][1,4]benzodiazepine-3-carboxamide], the inhibition at 0.1 µM was 13%. O=C(NCCN1CCCCC1)c1ccc2n1Cc1ccccc1N(C(=O)c1ccc(C3CCCCC3)cc1)C2 [Example 37, 10-(4-Cyclohexyl-benzoyl)-N-[2-(1-piperidinyl)ethyl]-10,11-dihydro-5H-pyrrolo[2,1-c][1,4]benzodiazepine-3-carboxamide] was tested, and the inhibition at 0.1 µM was 61%. CN1CCCC1CCNC(=O)c1ccc2n1Cc1ccccc1N(C(=O)c1ccc(C3CCCCC3)cc1)C2 (stereo not shown) [Example 38, 10-(4-Cyclohexyl-benzoyl)-N-[2-(1-methyl-2-pyrrolidinyl)ethyl]-10,11-dihydro-5H-pyrrolo[2,1-c][1,4]benzodiazepine-3-carboxamide] showed an inhibition at 0.1 µM of 57%. For CN1CCC(N(C)C(=O)c2ccc3n2Cc2ccccc2N(C(=O)c2ccc(C4CCCCC4)cc2)C3)CC1 [Example 39, 10-(4-Cyclohexyl-benzoyl)-N-methyl-N-(1-methyl-4-piperidinyl)-10,11-dihydro-5H-pyrrolo[2,1-c][1,4]benzodiazepine-3-carboxamide], the inhibition at 0.1 µM was 85%. CN1CCC(N(C)C(=O)c2ccc3n2Cc2ccccc2N(C(=O)c2ccc(C4CCCCC4)cc2)C3)C1 (stereo not shown) [Example 40, 10-(4-Cyclohexyl-benzoyl)-N-methyl-N-(1-methyl-3-pyrrolidinyl)-10,11-dihydro-5H-pyrrolo[2,1-c][1,4]benzodiazepine-3-carboxamide] gave an inhibition at 0.1 µM of 60%. Work on CN(C)CCN1CCN(C(=O)c2ccc3n2Cc2ccccc2N(C(=O)c2ccc(C4CCCCC4)cc2)C3)CC1 [Example 41, [10-(4-Cyclohexyl-benzoyl)-10,11-dihydro-5H-pyrrolo[2,1-c][1,4]benzodiazepin-3-yl]{4-[2-(dimethylamino)ethyl]-1-piperazinyl}methanone] yielded an inhibition at 0.1 µM of 31%. Work on O=C(c1ccc2n1Cc1ccccc1N(C(=O)c1ccc(C3CCCCC3)cc1)C2)N1CCN(CCN2CCOCC2)CC1 [Example 42, [10(4-Cyclohexyl-benzoyl)-10,11-dihydro-5H-pyrrolo[2,1-c][1,4]benzodiazepin-3-yl]{4-[2-(4-morpholinyl)ethyl]-1-piperazinyl}methanone] yielded an inhibition at 0.1 µM of 65%. For C=CCN1CCN(C(=O)c2ccc3n2Cc2ccccc2N(C(=O)c2ccc(C4CCCCC4)cc2)C3)CC1 [Example 43, (4-Allyl-1-piperazinyl)[10-(4-cyclohexyl-benzoyl)-10,11-dihydro-5H-pyrrolo[2,1-c][1,4]benzodiazepin-3-yl]methanone], the inhibition at 0.1 µM was 1%.

Same assay, conditions: [3H]oxytocin, value in parentheses, read-out: OT (IC50)
Compound O=C(c1ccc2n1Cc1ccccc1N(C(=O)c1ccc(C3CCCCC3)cc1)C2)N1CCC(N2CCCC2)CC1 [Example 25, [10-(4-Cyclohexyl-benzoyl)-10,11-dihydro-5H-pyrrolo[2,1-c][1,4]benzodiazepin-3-yl][4-(1-pyrrolidinyl)-1-piperidinyl]methanone] has an IC50 of 13.2 nM. O=C(c1ccc2n1Cc1ccccc1N(C(=O)c1ccc(C3CCCCC3)cc1)C2)N1CCC(N2CCCCC2)CC1 [Example 26, [1,4′]Bipiperidinyl-1′-yl-[10-(4-cyclohexyl-benzoyl)-10,11-dihydro-5H-pyrrolo[2,1-c][1,4]benzodiazepin-3-yl]-methanone] showed an IC50 of 19.7 nM. Compound O=C(c1ccc2n1Cc1ccccc1N(C(=O)c1ccc(C3CCCCC3)cc1)C2)N1CCN(c2ccccn2)CC1 [Example 28, [10-(4-Cyclohexyl-benzoyl)-10,11-dihydro-5H-pyrrolo[2,1-c][1,4]benzodiazepine 3-yl][4-(2-pyridinyl)-1-piperazinyl]-methanone] has an IC50 of 111 nM.
